Laboratory results: US20230165868A1, “PARAXANTHINE-BASED COMPOSITIONS FOR ENHANCING MUSCLE FUNCTION, NITRIC OXIDE SIGNALING, AND/OR MUSCLE GLYCOGEN LEVELS” (Ingenious Ingredients, LP, priority 2021, published 2023)

Assays:
[1] = Body weight during 28-day oral supplementation; format: in vivo, Swiss Albino mice; conditions: mean ± SD, n = 8 mice
Protocol: (§1) Forty 8-week-old male Swiss Albino mice were housed in an animal room at a constant temperature (22±3° C.) and humidity (30%-70%) under a 12:12 h light-dark cycle with standard laboratory diet (Purina 5L79, Rat and Mouse 18% protein; PMI Nutrition International, Brentwood, Mo., USA). Distilled water was provided ad libitum. All animal experiments were reviewed and approved by the Institutional Animal Ethical Committee (IAEC) of Radiant Research Services Pvt. Ltd (Bangalore, India). All research was conducted in accordance with the guidelines of the committee for the purpose of control and supervision of experiments on animals (CPCSEA Registration Number-1803/PO/RcBi/S/2015/CPCSEA).
(§2) After one week of acclimation, the animals were randomly divided by body weight into five groups (n=8 per group in each test) for oral treatment once a day, at approximately same time each day (±1 hour), for 28 consecutive days: (1) vehicle control; (2) paraxanthine (3) L-theanine; (4) alpha-GPC; and (5) taurine. The dose administered to the mice was calculated using US Food and Drug Administration for human equivalence doses (HED), assuming a human weight of 60 kg. The following HED were used in this study: 100 mg paraxanthine, (ENFINITY™, Ingenious Ingredients, L.P Lewisville, Tex., USA; mouse dose: 20.5 mg/kg bw/day); 200 mg alpha-GPC mg (YangLing Daily Health Bio-Engineering Technology Co., Ltd; mouse dose: 41.09 mg/kg bw), 50 mg L-theanine (Hangzhou Qinyuan Natural Plant High-tech Co., Ltd; mouse dose: 10.28 mg/kg bw), and 500 mg taurine (Jiangyin Huachang Food Additive Co., Ltd; mouse dose: 102.75 mg/kg bw). 0.5% Carboxy Methyl Cellulose sodium was used as vehicle and the test item formulations were prepared daily. Dosing was conducted via oral gavage using disposable polypropylene syringes with sterilized stainless steel gavage tubes. The food intake and water consumption were monitored daily, and BW was recorded weekly. The last dose on day 28 was given 1 hour prior to testing.

[2] = Feed consumption during 28-day oral supplementation; format: in vivo, Swiss Albino mice; conditions: mean ± SD, n = 8 mice
Protocol: as §1, §2

[3] = system: male Swiss Albino mice; assay: Forelimb grip strength test; format: in vivo; conditions: for Baseline forelimb grip strength: day 0 baseline, time holding steel bar, mean of three trials; for increase in forelimb grip strength compared to control: day 28, one hour after oral treatment, vs vehicle control
Protocol: After one week of acclimation, the animals were randomly divided by body weight into five groups (n=8 per group in each test) for oral treatment once a day, at approximately same time each day (±1 hour), for 28 consecutive days: (1) vehicle control; (2) paraxanthine (3) L-theanine; […] The dose administered to the mice was calculated using US Food and Drug Administration for human equivalence doses (HED), assuming a human weight of 60 kg. […] Dosing was conducted via oral gavage using disposable polypropylene syringes with sterilized stainless steel gavage tubes. The food intake and water consumption were monitored daily, and BW was recorded weekly. The last dose on day 28 was given 1 hour prior to testing. The forelimb grip strength was measured on day 0 and day 28 by using a stainless-steel grill to assess muscle strength (Orchid Scientific & Innovative India Pvt Ltd, India). Grip strength was measured one hour after treatment. Briefly, each mouse was placed on a grill chamber and the steel bar is inverted; grip strength is measured by recording the time each animal holds the steel bar. The maximum time for each trial was six minutes. Each animal performed three independent trials separated by six minutes intervals and the mean of the three trials was calculated.

[4] = system: male Swiss Albino mice; assay: Treadmill endurance test; format: in vivo; conditions: for Distance traveled on treadmill / increase in distance traveled during treadmill exercise compared to control: after 28 days of supplementation; for Distance traveled on treadmill: run until exhaustion, n=8; for Distance traveled on treadmill / Baseline treadmill performance (distance): mean ± SD; for increase in distance traveled during treadmill exercise compared to control: vs vehicle control
Protocol: (2) paraxanthine (3) L-theanine; […] The dose administered to the mice was calculated using US Food and Drug Administration for human equivalence doses (HED), assuming a human weight of 60 kg. […] Dosing was conducted via oral gavage using disposable polypropylene syringes with sterilized stainless steel gavage tubes. The food intake and water consumption were monitored daily, and BW was recorded weekly. The last dose on day 28 was given 1 hour prior to testing. […] All animals were adapted to this procedure daily 60 minutes after dosing for five days in a week during the treatment period. On 28th day of each respective treatment, all animals were subjected to a muscle endurance test. […] Animals were subjected to the treadmill test until exhaustion. Distance traveled (cm) was measured as a marker of exercise performance.

[5] = Clinical biochemical profiles of serum; format: in vivo, Swiss Albino mice; conditions: serum at end of 28-day treatment; mean ± SD, n = 8
Protocol: (§3) After one week of acclimation, the animals were randomly divided by body weight into five groups (n=8 per group in each test) for oral treatment once a day, at approximately same time each day (±1 hour), for 28 consecutive days: (1) vehicle control; (2) paraxanthine (3) L-theanine; […] The dose administered to the mice was calculated using US Food and Drug Administration for human equivalence doses (HED), assuming a human weight of 60 kg. […] Dosing was conducted via oral gavage using disposable polypropylene syringes with sterilized stainless steel gavage tubes. The food intake and water consumption were monitored daily, and BW was recorded weekly. The last dose on day 28 was given 1 hour prior to testing. All animals were euthanized by 95% CO2 after 28 days of following their assigned treatment. Blood was collected immediately after euthanization by the retro-orbital route and was immediately centrifuged at 1500×g for 10 min at 4° C. before having all serum transferred into cryogenic tubes and stored at -80° C. The liver, heart, gastrocnemius and soleus were excised and weighed. Collected serum was analyzed for clinical biochemical variables including aspartate aminotransaminase (AST), alanine aminotransaminase (ALT), alkaline phosphatase (ALP), uric acid (UA), creatinine, total cholesterol (TC), triglycerides (TG), high-density lipoproteins (HDL), and low-density lipoproteins (LDL) were measured using an auto analyzer (EM360, ERBA Diagnostics Mannheim GmbH, Mannheim, Germany). Nitric oxide was analyzed using standard ELISA assay kits (Lot No: E-BC-[…], Elabscience, Houston, Tex., USA).

[6] = system: male Swiss Albino mice; assay: Muscle weight (gastrocnemius, soleus) after 28 days; format: in vivo; conditions: after 28 days of supplementation; vs vehicle control
Protocol: (§4) (2) paraxanthine (3) L-theanine; […] The dose administered to the mice was calculated using US Food and Drug Administration for human equivalence doses (HED), assuming a human weight of 60 kg. […] Dosing was conducted via oral gavage using disposable polypropylene syringes with sterilized stainless steel gavage tubes. The food intake and water consumption were monitored daily, and BW was recorded weekly. The last dose on day 28 was given 1 hour prior to testing. All animals were euthanized by 95% CO2 after 28 days of following their assigned treatment. Blood was collected immediately after euthanization by the retro-orbital route and was immediately centrifuged at 1500×g for 10 min at 4° C. before having all serum transferred into cryogenic tubes and stored at -80° C. The liver, heart, gastrocnemius and soleus were excised and weighed.

[7] = Liver and heart mass / gross pathology; format: in vivo, Swiss Albino mice; conditions: after 28 days of treatment; mean ± SD, n = 8
Protocol: as §4

[8] = system: Nitric oxide; assay: Serum nitric oxide ELISA; format: in vivo, Swiss Albino mice; conditions: serum after 28 days of treatment; for Nitric Oxide: mean ± SD, n = 8; for increase in nitric oxide levels over control: vs vehicle control
Protocol: as §3

Compound | body weight ([1]; Basal) | body weight ([1]; Week 1, oral once daily) | body weight ([1]; Week 2, oral once daily) | body weight ([1]; Week 3, oral once daily) | body weight ([1]; Week 4, oral once daily) | feed consumption ([2]; Week 1) | feed consumption ([2]; Week 2) | feed consumption ([2]; Week 3) | feed consumption ([2]; Week 4) | Baseline forelimb grip strength [3] | increase in forelimb grip strength compared to control [3] | Distance traveled on treadmill [4] | increase in distance traveled during treadmill exercise compared to control [4] | Baseline treadmill performance (distance) [4] | ALP [5] | ALT [5] | AST [5] | Creatinine [5] | Urea [5] | increase in gastrocnemius muscle mass compared to control [6] | other results
C[N+](C)(C)CCOP(=O)([O-])OC[C@H](O)CO [Alpha-GPC, L-alpha glycerylphosphorylcholine] | 22.50 ± 0.44 grams | 24.10 ± 0.40 grams | 27.05 ± 0.50 grams | 29.14 ± 0.49 grams | 31.68 ± 0.44 grams | 40.91 ± 0.55 grams | 43.34 ± 0.40 grams | 45.49 ± 0.40 grams | 47.54 ± 0.42 grams | 91.00±0.40 | 8% | 1,695±53.0 centimeters | did not increase treadmill performance | 248.6±42.2 cm | 179.3 ± 3.99 U/L | 23.63 ± 1.51 U/L | 38.88 ± 2.10 U/L | 0.90 ± 0.16 mg/dL | 29.38 ± 1.41 mg/dL | no effect on muscle mass | increase in soleus muscle mass compared to control [6]: no effect on muscle mass; Heart mass [7]: 189 ± 1.0 mg; Liver mass [7]: 1,869 ± 32 mg; Nitric Oxide [8]: 9.21 ± 2.33 ng/mL; increase in nitric oxide levels over control [8]: 42%
NCCS(=O)(=O)O [Taurine, taurine] | 22.50 ± 0.49 grams | 24.08 ± 0.66 grams | 26.99 ± 0.82 grams | 29.06 ± 0.69 grams | 32.34 ± 3.06 grams | 40.95 ± 0.60 grams | 43.21 ± 1.25 grams | 45.21 ± 1.15 grams | 47.36 ± 1.08 grams | 90.94±0.85 | failed to reach statistical significance | 1,671±125 centimeters | did not increase treadmill performance | 256.9±29.3 cm | 180.4 ± 5.42 U/L | 25.00 ± 1.07 U/L | 40.13 ± 2.36 U/L | 0.93 ± 0.14 mg/dL | 29.38 ± 1.60 mg/dL | no effect on muscle mass | increase in soleus muscle mass compared to control [6]: no effect on muscle mass; Heart mass [7]: 190 ± 1.2 mg; Liver mass [7]: 1,834 ± 52 mg; Nitric Oxide [8]: 7.56 ± 0.29 ng/mL
CCNC(=O)CC[C@H](N)C(=O)O [L-Theanine, L-theanine] | 22.41 ± 0.49 grams | 24.20 ± 0.56 grams | 26.76 ± 0.71 grams | 29.00 ± 0.60 grams | 31.60 ± 0.64 grams | 41.26 ± 0.86 grams | 43.50 ± 0.66 grams | 45.30 ± 0.48 grams | 47.60 ± 0.51 grams | 87.90±2.63 | 12% | 1,710±127 centimeters | 13% | 265.4±32.9 cm | 177.1 ± 3.68 U/L | 24.25 ± 1.28 U/L | 40.25 ± 2.44 U/L | 0.89 ± 0.11 mg/dL | 28.75 ± 1.28 mg/dL | 5% | increase in soleus muscle mass compared to control [6]: but not soleus muscle mass; Heart mass [7]: 189 ± 2.3 mg; Liver mass [7]: 1,866 ± 43 mg; Nitric Oxide [8]: 10.23 ± 1.26 ng/mL; increase in nitric oxide levels over control [8]: 57%
Cn1c(=O)[nH]c2ncn(C)c2c1=O [Paraxanthine, 1,7-dimethylxanthine] | 22.01 ± 0.40 grams | 23.86 ± 0.55 grams | 26.95 ± 0.41 grams | 29.68 ± 0.45 grams | 32.80 ± 0.48 grams | 41.73 ± 046 grams | 43.89 ± 0.68 grams | 46.00 ± 0.59 grams | 48.34 ± 0.68 grams | 90.60±0.92 | 17% | 2,100±133 centimeters | 39% | 255.3±30.7 cm | 179.4 ± 2.56 U/L | 23.88 ± 0.99 U/L | 39.50 ± 1.60 U/L | 0.86 ± 0.11 mg/dL | 29.13 ± 0.99 mg/dL | 14% | increase in soleus muscle mass compared to control [6]: 41%; Heart mass [7]: 190 ± 1.4 mg; Liver mass [7]: 1,870 ± 31 mg; Nitric Oxide [8]: 13.06 ± 0.58 ng/mL; increase in nitric oxide levels over control [8]: 101%
